Experimental data reported in the NIST ThermoML archive (doi:10.1021/je500762n).
± gives the expanded uncertainty stated by the source.

Tests used:
[1] = Crystal; DTA
[2] = Molar enthalpy of transition or fusion; conditions: Crystal; DSC

| SMILES | Normal melting temperature [1] | Molar enthalpy of transition or fusion [2] |
| --- | --- | --- |
| CCCCCCC[n+]1csc2ccccc21.F[P-](F)(F)(F)(F)F [3-heptylbenzo[d]thiazol-3-ium hexafluorophosphate] | 86.2 ± 0.5 °C | 4.8 ± 0.167 kcal/mol |
| CCCCCC[n+]1csc2ccccc21.F[P-](F)(F)(F)(F)F [N-hexylbenzothiazolium hexafluorophosphate] | 85.64 ± 0.5 °C | 5.62 ± 0.167 kcal/mol |
| CCCCCCCC[n+]1csc2ccccc21.F[P-](F)(F)(F)(F)F [N-octylbenzothiazolium hexafluorophosphate] | 61.07 ± 0.5 °C | 3.59 ± 0.12 kcal/mol |
| CCCCC[n+]1csc2ccccc21.F[P-](F)(F)(F)(F)F [N-pentylbenzothiazolium hexafluorophosphate] | 139.11 ± 0.5 °C | 7.22 ± 0.215 kcal/mol |
